What was measured:
Format in all cases: physicochemical
[1] = Stability on prolonged drying under vacuum; details: about 2 days under vacuum at about 70° C.
Procedure: Form A of the DMF solvate of relugolix is stable, i.e., it is unchanged after prolonged drying (e.g., about 2 days) under vacuum at about 70° C.

[2] = Stability under high humidity at ambient temperatures; details: about 97% humidity, over a month
[3] = Dynamic vapor sorption (DVS)
Procedure: DVS samples are analyzed using a TA Instruments Q5000SA gravimetric water sorption analyzer. The relative humidity is adjusted between about 0-95% and the weight of the sample is continuously monitored and recorded with respect to the relative humidity and time.

**Q.** Which results are given for `CONC(=O)Nc1ccc(-c2sc3c(c2CN(C)C)c(=O)n(-c2ccc(OC)nn2)c(=O)n3Cc2c(F)cccc2F)cc1` [Form A of the DMF solvate of relugolix, 1-[4-[1-[(2,6-difluorophenyl)-methyl]-5-[(dimethylamino)methyl]-3-(6-methoxypyridazin-3-yl)-2,4-dioxothieno-[2,3-d]pyrimidin-6-yl]phenyl]-3-methoxyurea]?
**A.** stability after prolonged drying [1]: unchanged; stability under humidity [2]: remains unchanged; DVS loss of mass ([3]; at about 90% RH): about 1%

**Q.** Which “stability at various humidity levels” value ([3]; evidenced by XRPD after DVS) does the source give for `CONC(=O)Nc1ccc(-c2sc3c(c2CN(C)C)c(=O)n(-c2ccc(OC)nn2)c(=O)n3Cc2c(F)cccc2F)cc1` [Form B of anhydrous relugolix, 1-[4-[1-[(2,6-difluorophenyl)-methyl]-5-[(dimethylamino)methyl]-3-(6-methoxypyridazin-3-yl)-2,4-dioxothieno-[2,3-d]pyrimidin-6-yl]phenyl]-3-methoxyurea] here?
**A.** remains stable

**Q.** What about the DVS weight loss ([3]; relative humidity levels between about 0 to about 95%) of the same compound?
**A.** about 7%

**Q.** Which “DVS weight % change” value ([3]; relative humidity (RH) levels between 0 to 90%) does the source give for `CONC(=O)Nc1ccc(-c2sc3c(c2CN(C)C)c(=O)n(-c2ccc(OC)nn2)c(=O)n3Cc2c(F)cccc2F)cc1` [Form T of anhydrous relugolix, 1-[4-[1-[(2,6-difluorophenyl)-methyl]-5-[(dimethylamino)methyl]-3-(6-methoxypyridazin-3-yl)-2,4-dioxothieno-[2,3-d]pyrimidin-6-yl]phenyl]-3-methoxyurea] here?
**A.** about 6%

From patent US11655256B1, “Processes for making a solid-state form of relugolix” (Johnson Matthey Public Limited Company, priority 2020, dated 2023)
